Experimental data reported in ChEMBL document CHEMBL4507268 (2021).

Tests used:
Details in all cases: Compound concentration 1.0 uM
[1] = molecular target: MAP kinase-activated protein kinase 3 (Homo sapiens) (UniProt Q16644)
[2] = molecular target: Testis-specific serine/threonine-protein kinase 2 (Homo sapiens) (UniProt Q96PF2)
[3] = molecular target: T1, Mitogen-activated protein kinase 12 (Homo sapiens) (UniProt P53778)
T1 sequence (whole entry): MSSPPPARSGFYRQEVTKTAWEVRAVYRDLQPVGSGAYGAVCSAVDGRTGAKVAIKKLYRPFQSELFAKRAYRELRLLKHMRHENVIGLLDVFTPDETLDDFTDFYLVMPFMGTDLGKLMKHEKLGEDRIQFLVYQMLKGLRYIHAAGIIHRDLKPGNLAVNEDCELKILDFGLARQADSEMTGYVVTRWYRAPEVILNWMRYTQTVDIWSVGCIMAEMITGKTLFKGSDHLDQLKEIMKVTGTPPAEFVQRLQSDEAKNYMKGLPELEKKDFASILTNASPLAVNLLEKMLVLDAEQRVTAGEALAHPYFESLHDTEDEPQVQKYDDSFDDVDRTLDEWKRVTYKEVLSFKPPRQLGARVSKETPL

[4] = molecular target: Tyrosine-protein kinase Srms (Homo sapiens) (UniProt Q9H3Y6)
Chain of Tyrosine-protein kinase Srms (Homo sapiens) (Q9H3Y6 whole entry): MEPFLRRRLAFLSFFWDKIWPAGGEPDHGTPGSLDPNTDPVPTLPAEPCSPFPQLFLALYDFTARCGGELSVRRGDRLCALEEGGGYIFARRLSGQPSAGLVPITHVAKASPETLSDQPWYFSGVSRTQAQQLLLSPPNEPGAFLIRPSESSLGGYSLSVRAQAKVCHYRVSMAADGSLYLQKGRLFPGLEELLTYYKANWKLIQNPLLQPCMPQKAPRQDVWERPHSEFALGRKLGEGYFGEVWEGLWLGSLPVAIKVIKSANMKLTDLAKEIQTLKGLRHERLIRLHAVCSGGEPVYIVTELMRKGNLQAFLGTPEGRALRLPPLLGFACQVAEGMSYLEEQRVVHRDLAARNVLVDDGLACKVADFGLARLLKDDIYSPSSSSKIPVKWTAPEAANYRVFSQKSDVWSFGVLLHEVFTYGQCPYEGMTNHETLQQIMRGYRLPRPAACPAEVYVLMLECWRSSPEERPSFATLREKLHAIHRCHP

[5] = molecular target: Macrophage-stimulating protein receptor (Homo sapiens) (UniProt Q04912)
[6] = molecular target: SRSF protein kinase 1 (Homo sapiens) (UniProt Q96SB4)
Chain of SRSF protein kinase 1 (Homo sapiens) (Q96SB4 whole entry): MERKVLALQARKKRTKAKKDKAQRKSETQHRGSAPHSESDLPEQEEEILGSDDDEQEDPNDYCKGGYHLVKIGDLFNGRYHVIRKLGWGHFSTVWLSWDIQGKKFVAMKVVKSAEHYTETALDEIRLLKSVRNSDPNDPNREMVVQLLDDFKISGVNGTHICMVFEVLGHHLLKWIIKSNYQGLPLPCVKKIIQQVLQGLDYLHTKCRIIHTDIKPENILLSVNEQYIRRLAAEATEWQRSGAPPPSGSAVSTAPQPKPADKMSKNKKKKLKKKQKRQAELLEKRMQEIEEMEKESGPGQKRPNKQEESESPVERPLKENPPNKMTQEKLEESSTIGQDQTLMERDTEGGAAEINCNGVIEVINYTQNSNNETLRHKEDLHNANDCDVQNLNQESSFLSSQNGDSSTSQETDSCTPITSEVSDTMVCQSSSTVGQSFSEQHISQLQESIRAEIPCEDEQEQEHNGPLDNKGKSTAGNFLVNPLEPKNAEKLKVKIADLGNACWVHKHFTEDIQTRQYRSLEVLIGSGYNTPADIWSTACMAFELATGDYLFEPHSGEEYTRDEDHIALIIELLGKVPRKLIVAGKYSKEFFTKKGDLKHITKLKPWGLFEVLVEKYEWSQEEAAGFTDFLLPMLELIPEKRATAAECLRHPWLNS

[7] = molecular target: Calcium/calmodulin-dependent protein kinase type 1G (Homo sapiens) (UniProt Q96NX5)
Chain of Calcium/calmodulin-dependent protein kinase type 1G (Homo sapiens) (Q96NX5 whole entry): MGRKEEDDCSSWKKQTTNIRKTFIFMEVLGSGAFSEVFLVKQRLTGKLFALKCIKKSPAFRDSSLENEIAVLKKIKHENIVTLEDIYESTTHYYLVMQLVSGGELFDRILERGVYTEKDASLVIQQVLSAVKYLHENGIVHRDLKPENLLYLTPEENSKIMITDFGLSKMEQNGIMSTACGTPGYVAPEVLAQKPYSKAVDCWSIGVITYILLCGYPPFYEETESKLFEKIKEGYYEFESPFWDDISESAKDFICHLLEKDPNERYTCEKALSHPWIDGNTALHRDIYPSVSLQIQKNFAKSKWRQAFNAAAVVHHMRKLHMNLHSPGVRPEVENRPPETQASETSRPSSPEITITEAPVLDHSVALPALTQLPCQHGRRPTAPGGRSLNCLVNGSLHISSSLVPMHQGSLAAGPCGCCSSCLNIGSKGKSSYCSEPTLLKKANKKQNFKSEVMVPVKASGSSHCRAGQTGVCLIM

[8] = molecular target: T2, Cyclin-dependent kinase-like 2 (Homo sapiens) (UniProt Q92772)
T2 sequence (whole entry): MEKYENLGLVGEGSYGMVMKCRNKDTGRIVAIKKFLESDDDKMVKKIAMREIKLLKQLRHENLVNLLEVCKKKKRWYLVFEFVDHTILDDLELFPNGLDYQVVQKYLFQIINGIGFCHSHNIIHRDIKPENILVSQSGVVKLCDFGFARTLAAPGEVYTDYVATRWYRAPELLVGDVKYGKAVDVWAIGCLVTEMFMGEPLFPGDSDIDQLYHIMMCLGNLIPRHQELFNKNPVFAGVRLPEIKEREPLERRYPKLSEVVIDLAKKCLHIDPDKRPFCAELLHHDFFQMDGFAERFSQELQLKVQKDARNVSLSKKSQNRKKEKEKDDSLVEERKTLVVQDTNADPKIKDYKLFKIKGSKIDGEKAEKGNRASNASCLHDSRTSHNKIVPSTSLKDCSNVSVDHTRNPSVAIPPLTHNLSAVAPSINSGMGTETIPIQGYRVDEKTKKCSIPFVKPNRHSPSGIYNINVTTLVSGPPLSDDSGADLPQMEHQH

[9] = molecular target: Ribosomal protein S6 kinase alpha-1 (Homo sapiens) (UniProt Q15418)
Chain of Ribosomal protein S6 kinase alpha-1 (Homo sapiens) (Q15418 whole entry): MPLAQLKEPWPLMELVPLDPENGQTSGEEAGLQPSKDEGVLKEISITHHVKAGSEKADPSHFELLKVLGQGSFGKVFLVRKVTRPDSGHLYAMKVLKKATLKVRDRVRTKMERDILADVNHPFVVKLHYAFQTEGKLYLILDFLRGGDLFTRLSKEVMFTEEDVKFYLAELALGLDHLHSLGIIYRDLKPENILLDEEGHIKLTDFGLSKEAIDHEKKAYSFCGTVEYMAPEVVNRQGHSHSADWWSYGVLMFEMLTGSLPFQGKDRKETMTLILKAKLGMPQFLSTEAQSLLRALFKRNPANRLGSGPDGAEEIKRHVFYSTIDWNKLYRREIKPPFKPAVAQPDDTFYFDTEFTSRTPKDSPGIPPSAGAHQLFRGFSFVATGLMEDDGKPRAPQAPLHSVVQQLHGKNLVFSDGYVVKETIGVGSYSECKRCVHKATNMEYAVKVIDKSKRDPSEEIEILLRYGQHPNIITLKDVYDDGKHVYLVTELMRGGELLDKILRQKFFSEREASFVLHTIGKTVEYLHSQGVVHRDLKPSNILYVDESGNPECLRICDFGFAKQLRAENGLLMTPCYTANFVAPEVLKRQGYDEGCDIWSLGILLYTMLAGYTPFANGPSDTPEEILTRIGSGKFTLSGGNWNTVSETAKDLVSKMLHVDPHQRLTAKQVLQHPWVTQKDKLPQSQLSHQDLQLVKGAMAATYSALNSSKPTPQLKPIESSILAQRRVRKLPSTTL

[10] = molecular target: Ribosomal protein S6 kinase alpha-3 (Homo sapiens) (UniProt P51812)
Chain of Ribosomal protein S6 kinase alpha-3 (Homo sapiens) (P51812 whole entry): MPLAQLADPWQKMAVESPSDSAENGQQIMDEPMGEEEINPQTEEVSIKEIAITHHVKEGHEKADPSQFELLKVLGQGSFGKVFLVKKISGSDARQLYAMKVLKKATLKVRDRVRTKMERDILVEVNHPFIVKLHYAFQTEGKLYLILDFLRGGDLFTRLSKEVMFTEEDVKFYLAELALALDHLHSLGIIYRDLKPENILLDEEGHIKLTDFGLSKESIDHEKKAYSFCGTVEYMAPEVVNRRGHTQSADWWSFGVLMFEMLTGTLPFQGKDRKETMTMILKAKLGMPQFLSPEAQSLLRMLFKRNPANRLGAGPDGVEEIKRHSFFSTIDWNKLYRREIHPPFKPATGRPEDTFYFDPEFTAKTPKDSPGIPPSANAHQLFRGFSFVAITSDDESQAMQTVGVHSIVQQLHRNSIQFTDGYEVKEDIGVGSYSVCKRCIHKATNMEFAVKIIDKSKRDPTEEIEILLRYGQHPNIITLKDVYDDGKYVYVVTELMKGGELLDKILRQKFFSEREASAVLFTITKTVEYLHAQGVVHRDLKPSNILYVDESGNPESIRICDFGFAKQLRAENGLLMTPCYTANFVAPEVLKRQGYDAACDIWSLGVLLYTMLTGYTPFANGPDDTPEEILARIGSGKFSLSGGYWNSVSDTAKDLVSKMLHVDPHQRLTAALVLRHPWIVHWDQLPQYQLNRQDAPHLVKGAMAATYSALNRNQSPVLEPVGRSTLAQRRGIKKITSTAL

[11] = molecular target: T3, Serine/threonine-protein kinase TBK1 (Homo sapiens) (UniProt Q9UHD2)
T3 sequence (whole entry): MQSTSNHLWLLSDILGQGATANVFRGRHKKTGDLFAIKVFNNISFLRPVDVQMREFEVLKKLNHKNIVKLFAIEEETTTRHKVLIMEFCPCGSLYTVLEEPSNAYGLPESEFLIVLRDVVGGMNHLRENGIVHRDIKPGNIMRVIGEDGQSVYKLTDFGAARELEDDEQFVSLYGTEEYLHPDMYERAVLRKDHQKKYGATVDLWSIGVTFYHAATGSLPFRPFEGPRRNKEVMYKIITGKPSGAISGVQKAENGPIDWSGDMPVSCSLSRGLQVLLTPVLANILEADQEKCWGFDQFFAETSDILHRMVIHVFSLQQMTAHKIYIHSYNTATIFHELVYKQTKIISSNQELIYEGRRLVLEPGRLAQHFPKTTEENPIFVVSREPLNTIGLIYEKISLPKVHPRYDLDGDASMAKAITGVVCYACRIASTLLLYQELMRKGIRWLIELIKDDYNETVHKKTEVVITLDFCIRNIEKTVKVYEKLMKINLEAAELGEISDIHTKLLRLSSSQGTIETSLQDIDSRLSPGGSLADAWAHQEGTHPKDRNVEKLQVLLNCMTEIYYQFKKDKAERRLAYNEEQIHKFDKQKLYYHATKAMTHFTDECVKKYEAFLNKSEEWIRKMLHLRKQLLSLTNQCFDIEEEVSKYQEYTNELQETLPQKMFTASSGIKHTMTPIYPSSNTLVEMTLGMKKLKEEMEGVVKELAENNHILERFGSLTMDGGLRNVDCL

[12] = molecular target: Dual specificity protein kinase CLK4 (Homo sapiens) (UniProt Q9HAZ1)
Chain of Dual specificity protein kinase CLK4 (Homo sapiens) (Q9HAZ1 whole entry, looked up): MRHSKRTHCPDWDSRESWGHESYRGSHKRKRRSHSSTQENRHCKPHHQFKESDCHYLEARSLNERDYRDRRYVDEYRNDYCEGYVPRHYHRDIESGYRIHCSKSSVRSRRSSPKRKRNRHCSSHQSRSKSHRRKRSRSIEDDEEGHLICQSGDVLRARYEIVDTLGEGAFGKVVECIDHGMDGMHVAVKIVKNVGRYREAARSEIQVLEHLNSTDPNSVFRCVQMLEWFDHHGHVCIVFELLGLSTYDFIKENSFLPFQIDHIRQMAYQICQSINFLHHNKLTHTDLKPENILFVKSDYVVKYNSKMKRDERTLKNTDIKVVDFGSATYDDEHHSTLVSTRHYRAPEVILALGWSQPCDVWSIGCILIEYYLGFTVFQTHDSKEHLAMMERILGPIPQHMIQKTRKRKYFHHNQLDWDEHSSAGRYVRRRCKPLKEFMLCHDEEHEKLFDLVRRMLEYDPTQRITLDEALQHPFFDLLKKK

[13] = molecular target: SRSF protein kinase 2 (Homo sapiens) (UniProt P78362)
[14] = molecular target: Protein kinase C delta type (Homo sapiens) (UniProt Q05655)
Chain of Protein kinase C delta type (Homo sapiens) (Q05655 whole entry, looked up): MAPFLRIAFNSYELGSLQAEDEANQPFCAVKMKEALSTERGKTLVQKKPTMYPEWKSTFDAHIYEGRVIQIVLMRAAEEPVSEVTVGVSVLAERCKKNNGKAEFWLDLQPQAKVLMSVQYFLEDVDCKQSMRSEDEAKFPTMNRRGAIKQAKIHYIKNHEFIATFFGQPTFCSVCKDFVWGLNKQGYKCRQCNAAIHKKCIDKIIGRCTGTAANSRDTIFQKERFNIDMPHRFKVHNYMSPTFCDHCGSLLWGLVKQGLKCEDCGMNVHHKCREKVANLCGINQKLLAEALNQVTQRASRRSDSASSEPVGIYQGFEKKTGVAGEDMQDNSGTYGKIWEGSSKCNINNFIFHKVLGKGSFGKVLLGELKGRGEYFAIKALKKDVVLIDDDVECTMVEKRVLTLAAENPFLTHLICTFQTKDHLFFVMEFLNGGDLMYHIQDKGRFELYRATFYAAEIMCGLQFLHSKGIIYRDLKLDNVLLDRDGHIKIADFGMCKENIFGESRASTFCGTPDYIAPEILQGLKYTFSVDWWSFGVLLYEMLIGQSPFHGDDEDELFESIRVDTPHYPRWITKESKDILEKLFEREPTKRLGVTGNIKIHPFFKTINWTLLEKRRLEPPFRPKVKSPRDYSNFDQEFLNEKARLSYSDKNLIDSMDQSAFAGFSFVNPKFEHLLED

[15] = molecular target: Transient receptor potential cation channel subfamily M member 7 (Homo sapiens) (UniProt Q96QT4)

Measured: % residual kinase activity

Chain of Testis-specific serine/threonine-protein kinase 2 (Homo sapiens) (Q96PF2 whole entry): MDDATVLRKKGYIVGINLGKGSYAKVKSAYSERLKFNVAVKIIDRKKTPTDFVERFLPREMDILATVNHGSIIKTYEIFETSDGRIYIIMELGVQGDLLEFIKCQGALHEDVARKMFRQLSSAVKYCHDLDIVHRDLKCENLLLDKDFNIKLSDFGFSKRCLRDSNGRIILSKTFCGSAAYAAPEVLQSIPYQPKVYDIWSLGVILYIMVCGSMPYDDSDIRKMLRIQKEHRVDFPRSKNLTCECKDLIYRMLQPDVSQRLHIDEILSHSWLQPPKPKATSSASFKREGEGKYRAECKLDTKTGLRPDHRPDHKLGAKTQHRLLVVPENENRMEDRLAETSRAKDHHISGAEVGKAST
Chain of MAP kinase-activated protein kinase 3 (Homo sapiens) (Q16644 whole entry, looked up): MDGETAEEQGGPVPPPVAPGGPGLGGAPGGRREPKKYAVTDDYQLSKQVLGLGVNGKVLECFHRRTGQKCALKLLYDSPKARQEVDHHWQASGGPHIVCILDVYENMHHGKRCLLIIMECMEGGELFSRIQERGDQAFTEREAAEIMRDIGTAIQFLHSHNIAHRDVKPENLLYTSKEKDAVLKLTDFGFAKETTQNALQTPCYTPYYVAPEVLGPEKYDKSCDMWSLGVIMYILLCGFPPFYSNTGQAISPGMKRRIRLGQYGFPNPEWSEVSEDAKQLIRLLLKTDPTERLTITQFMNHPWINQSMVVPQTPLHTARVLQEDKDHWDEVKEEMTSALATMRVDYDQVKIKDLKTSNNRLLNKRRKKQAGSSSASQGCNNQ

CN1CCN(c2cnc3c(C4CCN(C(=O)c5ccc(OC(F)(F)F)cc5N)CC4)ncnc3c2)CC1 [BAY-885]
inactive: [1] 113% | [2] 113% | [3] 112% | [4] 81% | [5] 100% | [6] 114% | [7] 103% | [8] 96% | [9] 121% | [10] 109% | [11] 118% | [12] 118% | [13] 99% | [14] 115% | [15] 122%
